{"source": "patent US10568873B1", "about": "“Safranal-sorafenib combination therapy for liver cancer” (United Arab Emirates University, priority 2019, dated 2020)", "format_in_all_cases": "in vivo, male Wistar rats", "key": {"[1]": {"system": "DEN-induced hepatic neoplasia in rats", "test": "Serum ALT and AST biochemical analysis in DEN-induced HCC rats", "details": "P<0.05, one-way ANOVA, Tukey", "protocol": "(§1) A modified version of the protocol described by DePeralta et al. (2016) and Schiffer et al. (2005) was used here to establish the hepatocarcinogenesis model.\nOn the first 15 weeks, the control PBS group was treated with 1×PBS, whereas the experimental groups were given an intraperitoneal injection (IP) of 50 mg/kg of diethylnitrosoamine (DEN, Sigma Aldrich), a widely used chemical for inducing cancer, once a week. DEN was diluted with 1×PBS. Following a one-week break (week 16), the next three weeks (weeks 17 to 19) of treatment commenced. All drugs were administrated by oral gavage. […] For the HCC+sorafenib group, the drug (Carbosynth Limited) was administered at a dose of 10 mg/kg, five days a week. For the HCC+safranal group, the drug (Sigma Aldrich) was administered at a dose of 200 mg/kg, five days a week. For the HCC+safranal+sorafenib group, the drugs were administered at a dose of 200 mg/kg safranal+10 mg/kg sorafenib, five days a week. Both safranal and sorafenib were diluted with 1×PBS and drops of Tween 80. […] After 24-hours from last treatment, the rats were euthanized by mild diethyl ether and dissected in equal conditions. […]\nAlanine Transaminase (ALT), and Aspartate Aminotransferase (AST) assays were performed using commercial kits (Abcam), according to the protocol provided. ALT and AST activities were measured spectrophotometrically using Epoch by BioTek."}, "[2]": {"system": "DEN-induced hepatic neoplasia in rats", "test": "Liver gross examination and number of liver nodules", "protocol": "as §1\nOn the first 15 weeks, the control PBS group was treated with 1×PBS, whereas the experimental groups were given an intraperitoneal injection (IP) of 50 mg/kg of diethylnitrosoamine (DEN, Sigma Aldrich), a widely used chemical for inducing cancer, once a week. DEN was diluted with 1×PBS. Following a one-week break (week 16), the next three weeks (weeks 17 to 19) of treatment commenced. All drugs were administrated by oral gavage. […] For the HCC+sorafenib group, the drug (Carbosynth Limited) was administered at a dose of 10 mg/kg, five days a week. For the HCC+safranal group, the drug (Sigma Aldrich) was administered at a dose of 200 mg/kg, five days a week. For the HCC+safranal+sorafenib group, the drugs were administered at a dose of 200 mg/kg safranal+10 mg/kg sorafenib, five days a week. Both safranal and sorafenib were diluted with 1×PBS and drops of Tween 80. […] After 24-hours from last treatment, the rats were euthanized by mild diethyl ether and dissected in equal conditions. Blood and whole liver were collected."}, "[3]": {"system": "DEN-induced hepatic neoplasia in rats", "test": "Histology (H&E), area of neoplastic foci (AHF)", "details": "H&E sections; FIG. 5; P<0.05", "protocol": "as §1\n(§2) On the first 15 weeks, the control PBS group was treated with 1×PBS, whereas the experimental groups were given an intraperitoneal injection (IP) of 50 mg/kg of diethylnitrosoamine (DEN, Sigma Aldrich), a widely used chemical for inducing cancer, once a week. DEN was diluted with 1×PBS. Following a one-week break (week 16), the next three weeks (weeks 17 to 19) of treatment commenced. All drugs were administrated by oral gavage. All doses were chosen according to literature (Alsaied et al., 2014; Karafakioğlu et al., 2017). For the HCC+sorafenib group, the drug (Carbosynth Limited) was administered at a dose of 10 mg/kg, five days a week. For the HCC+safranal group, the drug (Sigma Aldrich) was administered at a dose of 200 mg/kg, five days a week. For the HCC+safranal+sorafenib group, the drugs were administered at a dose of 200 mg/kg safranal+10 mg/kg sorafenib, five days a week. Both safranal and sorafenib were diluted with 1×PBS and drops of Tween 80. […] After 24-hours from last treatment, the rats were euthanized by mild diethyl ether and dissected in equal conditions. Blood and whole liver were collected. […]"}, "[4]": {"system": "DEN-induced hepatic neoplasia in rats", "test": "Reticulin staining of liver sections", "details": "reticulin-stained sections; FIG. 6", "protocol": "as §1, §2"}, "PCNA": {"system": "PCNA", "test": "Western blot of proliferation-related protein PCNA in liver", "details": "normalized to total protein, n=4, P<0.05, FIG. 7", "protocol": "as §1\n(§3) On the first 15 weeks, the control PBS group was treated with 1×PBS, whereas the experimental groups were given an intraperitoneal injection (IP) of 50 mg/kg of diethylnitrosoamine (DEN, Sigma Aldrich), a widely used chemical for inducing cancer, once a week. DEN was diluted with 1×PBS. Following a one-week break (week 16), the next three weeks (weeks 17 to 19) of treatment commenced. All drugs were administrated by oral gavage. All doses were chosen according to literature (Alsaied et al., 2014; Karafakioğlu et al., 2017). […]\n(§4) One hundredth gm (10 mg) liver was homogenized using 200 μl RIPA buffer (Sigma Aldrich) mixed with 2 μl protease inhibitor and 2 μl phosphatase inhibitor (Sigma Aldrich), and centrifuged at 4° C., 15,000 rpm for 15 minutes. […] Protein concentration was measured by Pierce BCA Protein Assay Kit with Promega GloMax Discover. […] Band density and quantification was done using ImageJ (Amin et al., 2011). […]\n(§5) Due to technical reasons, total protein was used in this study as the loading control instead of the other common markers like GAPDH, β-tubulin, and β-actin. […] Ten internal controls were used, and their expressions were determined using RT-PCR. […]"}, "Cdk1, Cyclin B1, Cdc25B": {"system": "Cdk1, Cyclin B1, Cdc25B", "test": "Western blot of cell cycle-related proteins in liver", "protocol": "as §1, §3, §4, §5"}, "[5]": {"system": "Bcl-2, Bax, Pro-Caspase-9, Pro-Caspase-3, PARP", "test": "Western blot of intrinsic apoptosis-related proteins in liver", "protocol": "as §1\nOn the first 15 weeks, the control PBS group was treated with 1×PBS, whereas the experimental groups were given an intraperitoneal injection (IP) of 50 mg/kg of diethylnitrosoamine (DEN, Sigma Aldrich), a widely used chemical for inducing cancer, once a week. DEN was diluted with 1×PBS. Following a one-week break (week 16), the next three weeks (weeks 17 to 19) of treatment commenced. All drugs were administrated by oral gavage. All doses were chosen according to literature (Alsaied et al., 2014; Karafakioğlu et al., 2017). For the HCC+sorafenib group, the drug (Carbosynth Limited) was administered at a dose of 10 mg/kg, five days a week. For the HCC+safranal group, the drug (Sigma Aldrich) was administered at a dose of 200 mg/kg, five days a week. For the HCC+safranal+sorafenib group, the drugs were administered at a dose of 200 mg/kg safranal+10 mg/kg sorafenib, five days a week. Both safranal and sorafenib were diluted with 1×PBS and drops of Tween 80. […] After 24-hours from last treatment, the rats were euthanized by mild diethyl ether and dissected in equal conditions. Blood and whole liver were collected.\nOne hundredth gm (10 mg) liver was homogenized using 200 μl RIPA buffer (Sigma Aldrich) mixed with 2 μl protease inhibitor and 2 μl phosphatase inhibitor (Sigma Aldrich), and centrifuged at 4° C., 15,000 rpm for 15 minutes. Whole cell lysate was taken and stored at −80° C. Protein concentration was measured by Pierce BCA Protein Assay Kit with Promega GloMax Discover. A total of 35 μg of protein was loaded on a sodium dodecyl sulfate-polyacrylamide gel electrophoresis gel. […] Band density and quantification was done using ImageJ (Amin et al., 2011). […]\nas §5"}}}
{"compound": "CC1=C(C=O)C(C)(C)CC=C1", "note": "[safranal, 2,6,6-trimethyl-1,3-cyclohexadiene-1-carboxaldehyde]", "values": [{"measurement": "ALT levels as compared to HCC group", "setting": "[1]", "result": "significantly (P<0.05) decreased ALT levels"}, {"measurement": "lesions comparing to treatment with sorafenib alone", "setting": "[2]; FIG. 3", "result": "dramatically decreased lesions"}, {"measurement": "number of liver nodules / lesions comparing to HCC animals", "setting": "[2]; week 20, FIG. 2, FIG. 3", "result": "reduced lesions"}, {"measurement": "area of neoplastic foci / restoration of normal liver architecture", "setting": "[3]", "result": "seems to enhance (P<0.05) the restoration of the normal architecture of the liver"}, {"measurement": "reticular fibers' breakage and morphology comparing to HCC group", "setting": "[4]", "result": "reduced reticular fibers' breakage and restored their morphology"}, {"measurement": "PCNA expression", "setting": "PCNA", "result": "significantly downregulated PCNA"}, {"measurement": "Cdk1, cyclin B1, Cdc25B decrease versus sorafenib alone", "setting": "Cdk1, Cyclin B1, Cdc25B; FIG. 9", "result": "showed a greater decrease than treatment with sorafenib alone"}, {"measurement": "Cdk1, cyclin B1, Cdc25B levels comparing to HCC animals", "setting": "Cdk1, Cyclin B1, Cdc25B; P<0.05, FIG. 8, FIG. 9", "result": "significantly decreased their levels"}, {"measurement": "expression of the anti-apoptotic protein Bcl-2 compared to HCC groups", "setting": "[5]; FIG. 10, FIG. 11", "result": "significantly (P<0.05) decreased"}, {"measurement": "expression of the pro-apoptotic protein Bax compared to HCC groups", "setting": "[5]; FIG. 10, FIG. 11", "result": "significantly (P<0.05) increased"}, {"measurement": "expression of pro-caspases-9 & 3 and whole PARP compared to HCC group", "setting": "[5]; P<0.05, FIG. 12", "result": "significantly decreased"}]}
